Source: patent US4581231A (priority 1983, dated 1986)
Like-named read-outs stand apart in the source and are kept apart here.

Columns and labels:
Factor VIII:c = conditions: Factorate
Description: (§1) Lyophilized Factor VIII (Factorate--Armour) was extracted with chloroform using three different procedures.
(§2) A. 1 gram of Factorate (dry powder) was mixed at 4° C. for 20 minutes with 20 ml of cold chloroform. The chloroform was then removed by filtration and the dry powder was washed on the filter with an additional 10 ml of cold chloroform.
(§3) B. 1 gram of Factorate (dry powder) was mixed with 10 ml of cold chloroform at 4° C. for 10 minutes. The chloroform was removed by filtration and the powder was washed on the filter with 5 ml of cold chloroform. This process was then repeated a second time.
(§4) C. 1 gram of Factorate (dry powder) was mixed with 20 ml of chloroform at room temperature for 20 minutes. The chloroform was removed by filtration and the dry powder was washed on the filter with 10 ml of chloroform at room temperature.

Fibrinogen = conditions: Factorate
Description: as §1, §2, §3, §4

Fibronectin = conditions: Factorate
Description: as §1, §2, §3, §4

Hepatitis B virus [1] = test system: Hepatitis B virus; parameters: species or system rhesus monkeys; conditions: rhesus monkey, in vivo
Avian influenza virus [2] = conditions: 10% (v/v) chloroform
Polio Virus Type 1 = conditions: 10% (v/v) chloroform
Vaccinia Virus [3] = conditions: 10% (v/v) chloroform
[4] = test system: non-A, non-B hepatitis virus (H strain)
Hepatitis B virus [5] = conditions: in vivo
Vaccinia virus [6] = conditions: for inactivation of vaccinia virus: dry product 20 minutes, Factor 8; for Percent Inactivation: Vaccinia, dry state 20 min, Factor VIII
Avian influenza virus [7] = conditions: for Percent Inactivation: Influenza, dry state 20 min, Factor VIII
Vaccinia virus [8] = test system: Vaccinia virus
[9] = preliminary, uncontrolled, 10^-2 dilution of H plasma, 5% v/v chloroform

ClC(Cl)Cl [Chloroform, chloroform]
Factor VIII Units/ml (Factor VIII:c; 4° C. 1 × Extracted (control 9.1)): 8.9 Units/ml
Factor VIII Units/ml (Factor VIII:c; 4° C. 2 × Extracted (control 9.1)): 9.3 Units/ml
Factor VIII Units/ml (Factor VIII:c; Room Temp. Extraction (control 9.1)): 9.5 Units/ml
Fibrinogen (Fibrinogen; 4° C. 1 × Extracted (control 8.9 mg)): 9.3 mg/mL
Fibrinogen (Fibrinogen; 4° C. 2 × Extracted (control 8.9 mg)): 8.6 mg/mL
Fibrinogen (Fibrinogen; Room Temp. Extraction (control 8.9 mg)): 9.3 mg/mL
Fibronectin (Fibronectin; 4° C. 1 × Extracted (control 1.11 mg)): 1.19 mg/mL
Fibronectin (Fibronectin; 4° C. 2 × Extracted (control 1.11 mg)): 1.29 mg/mL
Fibronectin (Fibronectin; Room Temp. Extraction (control 1.11 mg)): 1.14 mg/mL
inactivation of the virus (Hepatitis B virus [1]): inactivated
Virus Titer Log10 ID50 /0.1 ml after CHCl3 extraction (coliphage .phi.×174): 9.0 Log10 ID50 /0.1 ml
reaction of control virus to chloroform treatment (coliphage .phi.×174): essentially unaffected
reaction of control virus to chloroform treatment (Avian influenza virus [2]): totally inactivated
Virus Titer Log10 ID50 /0.1 ml after CHCl3 extraction (Polio Virus Type 1; Polio virus type 1 in Fetal Calf Serum, 1:100, 10 min, room temperature): 6.5 Log10 ID50 /0.1 ml
reaction of control virus to chloroform treatment (Polio Virus Type 1; poliovirus): essentially unaffected
Virus Titer Log10 ID50 /0.1 ml after CHCl3 extraction (Vaccinia Virus [3]; Vaccinia virus in Fetal Calf Serum, 1:100, 10 min, room temperature): ≤ 0.5 Log10 ID50 /0.1 ml
reaction of control virus to chloroform treatment (Vaccinia Virus [3]; Vaccinia virus): totally inactivated
inactivation of 10^4 chimpanzee infectious doses ([4]; 10^4 chimpanzee infectious doses of the H strain of NANB): inactivated
evidence of hepatitis ([4]; chimpanzee 947, following either chloroform-treated or sham-treated H plasma): no evidence of hepatitis
biochemical evidence of hepatitis (weekly ALT levels) ([4]; chimpanzees 889 and 947, chloroform-treated H plasma, 10% (v/v) chloroform): none of these animals developed biochemical evidence of hepatitis
incubation period [4, 9]: 9.5 weeks
infectivity after chloroform treatment [4, 9]: still infectious
virus titer (indicated by incubation period) [4, 9]: reduced
anti-HBs / anti-HBc response (Hepatitis B virus [5]): did develop anti-HBs but not anti-HBc
biochemical evidence of hepatitis (weekly ALT levels) (Hepatitis B virus [5]): none of these animals developed biochemical evidence of hepatitis
inactivation of vaccinia virus (Vaccinia virus [6]; 4°): not inactivated
inactivation of vaccinia virus (Vaccinia virus [6]; 20° and 40° C.): partially inactivated
Percent Inactivation (Vaccinia virus [6]; 4° C.): 0%
Percent Inactivation (Vaccinia virus [6]; 20° C.): 70%
Percent Inactivation (Vaccinia virus [6]; 40° C.): 70%
Percent Inactivation (Avian influenza virus [7]; 4° C.): 99.8%
Percent Inactivation (Avian influenza virus [7]; 20° C.): 90%
completeness of inactivation of avian influenza virus (Avian influenza virus [7]; dry product 20 minutes, Factor 8): inactivation was not complete
inactivation of avian influenza virus (Avian influenza virus [7]; dry product 20 minutes, Factor 8, similar conditions of treatment): 90-99.8%
inactivation of vaccinia virus (Vaccinia virus [8]; after 20 minutes, dry state, room temperature (20° C.)): 90%
inactivation of vaccinia virus (Vaccinia virus [8]; after 2 hours, dry state, room temperature (20° C.)): 98%
inactivation of vaccinia virus (Vaccinia virus [8]; after 4 hours or more, dry state, room temperature (20° C.)): completely inactivated
inactivation of vaccinia virus (Vaccinia virus [8]; regardless whether in the liquid or dry state, longer time required when dry): completely inactivated

CCOCC [ether, diethyl ether]
inactivation of the virus (Hepatitis B virus [1]): inactivated
